Here are results for two molecules from US9687432B2, “Antimicrobial bispyridine amine compositions and uses” (LONZA INC., priority 2012, dated 2017).

The structures appear in SMILES notation. Structures can show the parent of a compound that is named as a salt.

In data set [1] the test system is Aureobasidium pullulans (9348). In words: Minimum Inhibitory Concentration (MIC) test, 96-well microtiter plate. The format is cell-based. The conditions noted are these: 48 hrs at 36° C., Sabouraud Dextrose Broth. How it is done: (§1) MICs for the organisms were determined using a standard 96-well microtiter plate assay in Tryptic Soy Broth (TSB) or Sabouraud Dextrose Broth (SDB). A stock solution (2500 ppm) of Octenidine distearate was prepared in methanol and stock solutions (2500 ppm) of Octenidine dihydrochloride and PHMB were prepared in absolute ethanol. […] Fungal inocula were grown up on Sabouraud Dextrose Agar plates (yeast) or Potato Dextrose Agar plates (mold) and mold spores and yeast cells were adjusted to approximately 100,000 per milliliter in Sabouraud Dextrose Broth (pH 5.6). Bacterial and fungal cultures were used to inoculate the serially diluted antimicrobials in the 96 well microplate and the plate was then incubated for 48 hrs at 36° C. The lowest concentration of test compound inhibiting growth at 48 hrs. (as determined by visual inspection) was recorded as the Minimum Inhibitory Concentration (MIC)

The test system of a further data set is Paecilomyces sp. The data set is described as above. The format is cell-based. The conditions noted are these: 48 hrs at 36° C., Sabouraud Dextrose Broth. How it is done: as §1
The test system of data set [2] is Pseudomonas aeruginosa (15442). The description is as above. It is filed as cell-based. The conditions noted are these: 48 hrs at 36° C., visual inspection. Here is the method:
as §1

The subject of another data set is LB penicillium sp. The data set is described as above. It is filed as cell-based. To be noted: 48 hrs at 36° C., Sabouraud Dextrose Broth. Here is the method:
as §1

Data set [3] concerns Klebsiella pneumoniae (4352). The description is as above. The format is cell-based. The conditions noted are these: 48 hrs at 36° C., visual inspection. Here is the method: as §1
Data set [4] relates to Aspergillus niger (16404). The description is as above. It is filed as cell-based. The conditions noted are these: 48 hrs at 36° C., Sabouraud Dextrose Broth. Here is the method:
as §1

The test system of data set [5] is Staphylococcus aureus (6538). Described as above. It is filed as cell-based. To be noted: 48 hrs at 36° C., visual inspection. Here is the method: as §1
For the next data set, the system named is Escherichia coli (10536). The data set is described as above. The format is cell-based. The conditions noted are these: 48 hrs at 36° C., visual inspection. Here is the method: as §1
Data set [6] has as its system Enterococcus hirae (8043). The description is as above. The format is cell-based. To be noted: 48 hrs at 36° C., visual inspection. Here is the method:
as §1

For data set [7], the system named is Pseudomonas aeruginosa (9027). Described as above. The format is cell-based. The conditions noted are these: 48 hrs at 36° C., visual inspection. How it is done:
as §1

Data set [8] concerns Enterobacter gergoviae (33028). Described as above. The format is cell-based. The conditions noted are these: 48 hrs at 36° C., visual inspection. How it is done:
as §1

For the next data set, the system named is Bacillus subtilus (6633). The description is as above. It is filed as cell-based. To be noted: 48 hrs at 36° C., visual inspection. How it is done: as §1
In another data set the test system is Candida albicans (10231). The data set is described as above. It is filed as cell-based. The conditions noted are these: 48 hrs at 36° C., Sabouraud Dextrose Broth. Here is the method: as §1
Data set [9] relates to Gliocladium virens (9645). The description is as above. The format is cell-based. To be noted: 48 hrs at 36° C., Sabouraud Dextrose Broth. Here is the method:
as §1

Data set [10] concerns Penicillium pinophilium (11797). Described as above. It is filed as cell-based. To be noted: 48 hrs at 36° C., Sabouraud Dextrose Broth. Here is the method:
as §1

The nature of a further data set: Foam height test. It is filed as physicochemical. The conditions noted are these: for foam height, 30 sec / foam height, 1 min / foam height, 2 min / foam height, Initial Reading: 0.5 grams in 49.5 ml DI water; for foam height, 30 sec / foam height, 1 min / foam height, 2 min: 100 ml graduated cylinder; for foam height, Initial Reading: read in 100 ml graduated cylinder with 1 ml line increments; for Type of Foam: 0.5 grams of active in 49.5 ml DI water, blended 1 minute. Here is the method: The testing was performed on samples containing octenidine dihydrochloride, octenidine distearate, PHMB HCl and the chloride salts benzalkonium chloride, benzethonium chloride, and cetylpyridinium chloride.
A 250 ml beaker was filed with 49.5 ml of deionized (DI) water for each sample. Then, 0.5 grams of the active was added to the beaker. Each solution was blended with a Bamix® wand homogenizer/mixer for 1 minute. The solution was then poured into a 100 ml graduated cylinder with 1 ml line increments. The height of the foam was documented at an initial, 30 second, 1 minute, and 2 minute time point.

The subject of data set [11] is EpiOcular™ Tissue Model (OCL-200). In words: MatTek EpiOcular MTT Viability Assay (ocular irritancy). It is filed as cell-based, human. How it is done:
The MatTek EpiOcular™ MTT Viability Assay (MatTek Corp.) was utilized to assess ocular irritancy and toxicology of octenidine distearate and octenidine dihydrochloride. The assay was performed using the MatTek EpiOcular™ Tissue Model (OCL-200) as well as the Methyl thiazole tetrazolium (MT) Kit (MT-100). The EpiOcular™ Tissue Model closely parallels human ocular tissue, thus providing a useful in vitro method to assess ocular irritancy and toxicology.
MTT Reduction: 704 μl of mineral oil were heated at 70° C. for 10 minutes.
0.3% Triton® X-100 (MatTek) (clear liquid) was used as a positive control. Tissue culture water (TCH20) (Sigma) (clear liquid) was used as a negative control. Mineral oil (Sigma) (clear liquid) was used as a vehicle control.
Before use, tissues were incubated (37° C.±1° C., 5%±1% CO2) with assay medium (MatTek) for a one-hour equilibration. Equilibration medium was replaced with fresh medium before dosing.
The test articles were diluted as described in the sample preparation above. 100 μl of the test article dilution were mixed with 1 ml of MTT solution (1 mg/ml MTT diluted in Dulbecco's Modified Eagle's Medium (DMEM). A negative control (100 μl of tissue culture water) and a vehicle control (100 μl of mineral oil) were tested concurrently. The solutions were incubated at room temperature in the dark for 60 minutes. After incubation, the solutions were visually inspected for purple coloration, which is a positive indication that the test article reduced MTT. Since tissue viability is based on MTT reduction, direct reduction by a test article can exaggerate viability, making a test article seem less irritating that it really is. […]
At the end of the selected exposure periods, each EpiOcular™ tissue was rinsed with phosphate buffered saline (PBS), soaked for 10 minutes in assay medial and transferred to a 24-well plate containing 300 μl of MTT solution (1 mg/ml MTT in DMEM). […] An aliquot of the extracted MTT formazan was measured at 540 nm using a plate reader (μQuant Plate Reader, Bio-Tek Instruments, Winooski, Vt.), subtracting the absorbance at a reference wavelength of 690 nm.
The mean absorbance value for each time point was calculated from the optical density (OD) of the duplicate samples and expressed as percent viability for each sample using the following formula: % viability=100×(OD sample/OD negative control or vehicle control) The ET50, the time at which the EpiOcular™ tissue viability was reduced 50% compared to control tissues, was then determined using a macro in Microsoft Excel 5.0, provided by MatTek, using the equation: V=a+b log t Where V=percent viability, t=time in hours, and a and b are constants that can be determined by using the viability data for two different exposure times of the text article to the tissue.

As usually defined, the MIC is the least concentration at which growth counts as inhibited. A low value points to inhibition by little substance. With `CCCCCCCCN=c1ccn(CCCCCCCCCCn2ccc(=NCCCCCCCC)cc2)cc1` [Octenidine HCl, Octenidine dihydrochloride], the MIC in data set [1] was 0.61 µg/mL; against Paecilomyces sp. it was 78.1 µg/mL; in data set [2], 1.22 µg/mL; against LB penicillium sp., 0.61 µg/mL; in [3], 0.61 µg/mL; in data set [4], 1.22 µg/mL. Besides, the MIC was 0.61 µg/mL in data set [5]; 0.61 µg/mL with Escherichia coli (10536); 0.61 µg/mL in data set [6]; 1.22 µg/mL in data set [7]; 1.22 µg/mL in data set [8] (Pluralibacter gergoviae); 0.61 µg/mL against Bacillus subtilus (6633). Also, the MIC against Candida albicans (10231) was 0.31 µg/mL; in data set [9] (Trichoderma virens) it was below 0.31 µg/mL; in data set [10], below 0.31 µg/mL. For the same molecule, the “foam height, 30 sec” value in “Foam height test” was found to be 80. In addition, the “foam height, 1 min” value in “Foam height test” was 78. Besides, in the data set “Foam height test”, the “foam height, 2 min” value turned out to be 70. For the same molecule, the “foam height, Initial Reading” value in “Foam height test” was determined as 86. In “Foam height test”, the “Type of Foam” value is recorded as “Slightly loose”. Further, the “Irritancy Classification” value in data set [11] is “Severe”.
On to `CCCCCCCCCCCCCCCCCC(=O)O.CCCCCCCCCCCCCCCCCC(=O)O.CCCCCCCCN=c1ccn(CCCCCCCCCCn2ccc(=NCCCCCCCC)cc2)cc1` [Octenidine distearate, octenidine distearate], for which the “Minimum Inhibitory Concentration (MIC)” value in [1] was 1.22 ppm; in the data set on Paecilomyces sp., 156.25 ppm; in [2], 19.53 ppm; in the data set on LB penicillium sp. it was 2.44 ppm; in data set [3], 2.44 ppm; in data set [4] it was 9.77 ppm. The “Minimum Inhibitory Concentration (MIC)” value in data set [5] is 2.44 ppm; in the data set on Escherichia coli (10536), 2.44 ppm; in [6], 4.88 ppm; in data set [7] it was 4.88 ppm; in [8], 4.88 ppm; in the data set on Bacillus subtilus (6633) it was 1.22 ppm. For the same molecule, the figures for the “Minimum Inhibitory Concentration (MIC)” value (in the data set on Candida albicans (10231); in [9]; in data set [10]) were 0.61 ppm, 2.44 ppm and 2.44 ppm, respectively. The “foam height, 30 sec” value in the data set “Foam height test” is 60. For the same molecule, in “Foam height test”, the “foam height, 1 min” value came out at 56. For the same molecule, the “foam height, 2 min” value in the data set “Foam height test” came to 52. Further, in the data set “Foam height test”, the “foam height, Initial Reading” value is 70. For the same molecule, in “Foam height test”, the “Type of Foam” value is reported as “Loose”. In addition, the “ET50” value in data set [11] is above 256.0 min. Further, in data set [11], the “ET50 (min)” value is “greater than 256.0 min”. The “Irritancy Classification” value in [11] is given as “Non-Irritating, minimal”.
